Results taken from patent US12502440B2, “Cross-linking compounds and methods of use thereof” (North Carolina State University, priority 2019, dated 2025).

Biological target: T1, β-glucosidase from Agrobacterium (Agrobacterium sp., UniProt P12614)
T1 construct: purchased Megazyme
T1 sequence (P12614 1-459): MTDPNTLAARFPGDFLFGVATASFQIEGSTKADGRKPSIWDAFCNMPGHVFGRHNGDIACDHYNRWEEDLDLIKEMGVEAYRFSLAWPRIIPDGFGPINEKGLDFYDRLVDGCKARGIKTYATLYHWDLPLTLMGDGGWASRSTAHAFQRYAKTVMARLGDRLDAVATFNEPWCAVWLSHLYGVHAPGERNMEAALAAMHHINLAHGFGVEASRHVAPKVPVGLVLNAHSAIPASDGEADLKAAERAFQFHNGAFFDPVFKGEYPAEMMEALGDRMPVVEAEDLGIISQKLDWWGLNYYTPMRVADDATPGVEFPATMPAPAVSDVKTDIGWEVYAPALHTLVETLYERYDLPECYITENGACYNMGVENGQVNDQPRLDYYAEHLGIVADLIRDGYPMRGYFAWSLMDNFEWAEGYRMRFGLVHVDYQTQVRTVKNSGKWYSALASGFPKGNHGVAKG
Experiment: Oligomerization of bis(indoxyl-glucoside) 46 with β-glucosidase from Agrobacterium
Type: biochemical
Conditions: precipitate from 300 μM of 46 suspended in H2O
Method: Oligomerization of 46 was carried out by treatment with β-glucosidase from Agrobacterium (200 nM) in 10 mM phosphate buffer (pH 7) at 37° C. for 2-4 h (Scheme 9). Precipitation occurred during the reaction. After centrifugation, the precipitate was separated from the supernatant, washed with H2O, and dried to afford a blue solid.
The efficacy of the indigogenic oligomerization was examined under a variety of conditions. As shown in entries 1˜4 in Table 2, the yield of indigoid dye in the supernatant versus precipitate reversed as the concentration of 46 was decreased from 300 to 10 μM, although the total yields were in the range 17-29%. While the reactions in entries 1˜4 were carried out in phosphate buffer containing NaCl (0.05 M), those of entries 5 and 6 (with 300 and 50 μM of 46, respectively) were conducted in NaCl-free phosphate buffer. The use of NaCl-free phosphate buffer facilitated extraction of the indigoid dye in the supernatant for analysis.
The time course of the oligomerization was examined under the reaction conditions listed in entry 5 of Table 2, with 300 μM of 46. Noticeable changes include observation of blue clouding and color deepening at 20 min. Centrifugation enabled isolation of the precipitate. […] The absorption spectrum of the precipitate was examined in DMF/DMSO (9:1) and compared with that of the extracted supernatant (in DMF) and 43 (in DMF) (FIG. 10D). […]

O=S(=O)([O-])CCC[N+]1(CCCO)CCN(c2nc(OCCOCCOCCOc3c(Br)cc4[nH]cc(O[C@@H]5O[C@H](CO)[C@@H](O)[C@H](O)[C@H]5O)c4c3Br)nc(OCCOCCOCCOc3c(Br)cc4[nH]cc(O[C@@H]5O[C@H](CO)[C@@H](O)[C@H](O)[C@H]5O)c4c3Br)n2)CC1 [compound 46]
particle size of precipitate by DLS (number mean): ~680 nm
